Residue numbers refer to the chain shown, from its start.
Assays:
Aurora B = settings: ref Howard et al., 2009; cited from earlier work
[1] = target: T1, Biotinylated T288V Aurora A (Homo sapiens, UniProt O14965, T288V); experiment: Creoptix WAVE waveguide interferometry (double jump, slow-off, macroscopic KD); format: binding; settings: 25°C; complex formed after 1 hour of incubation
T1 construct: made in house
T1 sequence (O14965 122-403 T288V): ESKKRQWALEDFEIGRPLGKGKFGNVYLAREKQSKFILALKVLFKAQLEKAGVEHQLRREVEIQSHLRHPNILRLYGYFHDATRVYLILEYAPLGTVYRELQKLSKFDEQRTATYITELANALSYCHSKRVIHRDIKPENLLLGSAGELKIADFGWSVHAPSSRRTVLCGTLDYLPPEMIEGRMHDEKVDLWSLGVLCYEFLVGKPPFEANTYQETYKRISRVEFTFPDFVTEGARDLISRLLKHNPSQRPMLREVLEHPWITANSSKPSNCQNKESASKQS
Protocol: All chemicals were purchased from GE Healthcare, unless otherwise stated. The protocols in the WAVE control software for conditioning of the chip, immobilization of proteins and performing kinetics experiments were followed. In short, the polycarboxylate chip (PCH) was activated by injection of a 1:1 mixture with final concentrations of 200 mM N-ethyl-N’-(3-dimethylaminopropyl)carbodiimide (EDC) and 50 mM N-hydroxysuccinimide (NHS), followed by streptavidin immobilization (50 μg/mL in 10 mM sodium acetate pH 5.0). Unreacted sites on the chip were blocked with 1 M ethanolamine pH 8.0. For all activation, immobilization and passivation steps 0.2x HBS-EP was used as running buffer with a flowrate of 10 μL/min and an injection duration of 420 s on both channels 1 and 2.
All experiments were run in 50 mM HEPES, 50 mM NaCl, 20 mM MgCl2, 5 mM TCEP, 0.03 mg/mL BSA, 0.005% Tween-20, pH 7.30 as running buffer.

Aurora A [2] = target: T2, Aurora A (Homo sapiens, UniProt O14965); experiment: Global fit of binding and dissociation kinetics (KinTek Explorer) and constants calculated from microscopic rate constants; settings: for weakening of overall affinity by the DFG-in and -out equilibrium: DFG-out binders
T2 construct: made in house; host or cells: E. coli BL21(DE3)
T2 sequence (O14965 122-403): T1 sequence (O14965 122-403 T288V) with V167T
Protocol: (§1) The rapid kinetics were studied using a stopped-flow spectrophotometer (SX20 series from Applied Photophysics Ltd). The flow system was made anaerobic by rinsing with degassed buffer comprised of 50 mM HEPES, 50 mM NaCl, 20 mM MgCl2, 5 mM TCEP, 5% DMSO, pH 7.30 to minimize photobleaching. The stock solutions of Aurora A and all drugs were made anaerobic by degassing with ThermoVac (MicroCal) at the desired temperature. In general, a solution of 5 μM Aurora A was loaded in one syringe and quickly mixed with drug, prepared in the same buffer, in the other syringe (mixing ratio 1:10). […] For each drug concentration, at least five replicate measurements were made and these transients were averaged. Analysis was performed by fitting the individual trace to exponential equations using Pro-Data Viewer (Applied Photophysics Ltd) or with Kinesyst 3 software (TgK Scientific) and error bars denote the standard errors as obtained from the fit. KaleidaGraph version 4.5.3 (Synergy) was used for data analysis and plotting.

Aurora C = test system: Aurora C; parameters: method as in Carpinelli et al., 2007; Fraedrich et al., 2012; settings: ref Carpinelli et al., 2007; Fraedrich et al., 2012; cited from earlier work
[3] = target: T3, dephosphorylated Aurora A (Homo sapiens, UniProt O14965); experiment: Stopped-flow intrinsic tryptophan fluorescence drug binding kinetics
T3 construct: made in house; host or cells: E. coli BL21(DE3)
T3 sequence (O14965 122-403): T1 sequence (O14965 122-403 T288V) with V167T
Protocol: as §1
The approximate values of k1 and k−1 obtained from fitting to this equation are used as starting values for the global fit.

Aurora A [4] = target: T2, Aurora A; experiment: mant-ATP binding kinetics by stopped-flow FRET from Trp, with global fit; settings: 10°C
Protocol: Inhibitor binding followed by an induced-fit step:(3) Eout+ I⇌koffkonEout⋅I⇌k−3k3Eout∗⋅I K2K3KD=K2∗K3/(K3+1)
FRET using intrinsic tryptophan fluorescence is used to monitor mant-ATP (obtained from Jena Bioscience) binding kinetics to Aurora A at 10°C. In the binding experiment or kon , increasing concentration of mant-ATP were quickly mixed to 0.5 µM Aurora A (ratio 1:10, excitation at 295 nm, emission cut-off at 395 nm). In the experiment to measure the release of mant-ATP or koff , 10 µM/10 µM Aurora A/mant-ATP complex was diluted with buffer (ratio 1:10). A significant decrease in the fluorescence intensity of Aurora A (excitation at 295 nm, emission cut-off at 395 nm) can be seen due to the mant-ATP release.

[5] = target: the molecule itself; experiment: crystal structure; co-crystallised: 240 μM deP Aurora A 122-403 + 1.0 mM AT9283 + 250 μM Mb; sitting drop, 18°C, 0.1 M Bis-Tris pH 5.5, 0.2 M magnesium chloride, 19% (w/v) PEG-3350

## O=C(Nc1c[nH]nc1-c1nc2ccc(CN3CCOCC3)cc2[nH]1)NC1CC1 [AT9283]
Aurora B
  IC50: 3 nM
[1]
  slow dissociation, double exponential, fast phase (kobs1 slow-off): (1.1 ± 0.02) × 10^−2 s^−1
  slow dissociation, double exponential, slow phase (kobs2 slow-off): (0.1 ± 0.01) × 10^−2 s^−1

## CO[C@@H](C(=O)N1Cc2n[nH]c(NC(=O)c3ccc(N4CCN(C)CC4)cc3)c2C1)c1ccccc1 [Danusertib]
Aurora A [2]
  weakening of overall affinity by the DFG-in and -out equilibrium: 1.6 fold
Aurora A [2]; induced-fit step
  tighter binding resulting from the conformational change after drug binding: four orders of magnitude
Aurora C
  IC50: 61 nM
[3]; 25°C
  k-2 (intercept of kobs,Binding plot): 4.6 ± 3 s⁻¹
  kobs of slow phase, plateau (induced-fit step, k3+k-3): approximately 16 ± 2 s^−1

## Cc1ccc(NC(=O)c2ccc(CN3CCN(C)CC3)cc2)cc1Nc1nccc(-c2cccnc2)n1 [Gleevec]
Aurora A [2]
  weakening of overall affinity by the DFG-in and -out equilibrium: 1.6 fold
[3]; 10°C
  k2, bimolecular rate constant (slope of kobs,Binding vs concentration, fast phase): 1.1e+06 ± 300000 M⁻¹ s⁻¹
  k-2, dissociation from intercept of binding plot (kdiss): 31 ± 2 s⁻¹

## mant-ATP
Aurora A [4]
  k2 (plot of kobs vs concentration, fast phase): 800000 ± 200000 M⁻¹ s⁻¹
  k-2 (plot of kobs vs concentration, fast phase): 50 ± 8 s⁻¹
  kobs of slow phase, plateau (k3+k-3): around 21 ± 1 s^−1

B1: dephosphorylated Aurora A (122-403) (domain or fragment, human, UniProt O14965 122-403, looked up)
chain: T1 sequence (O14965 122-403 T288V) with V167T
notes: human Ser/Thr kinase Aurora A, residues 122-403, dephosphorylated (confirmed by mass spectrometry); E. coli BL21(DE3) is named only for the isotope-labelled samples; also called deP Aurora A^122-403; AurA; source: expressed and purified as described before (Zorba et al., 2014)
[5]
  binding result: binds
